Assay results as given in US9261497B2, “Method of treating cancer with modulators of SCFSkp2” (New York University, priority 2012, dated 2016).

What was measured:
[1] = biological target: T1, SCF-Skp2 (Skp2-Cks1) (Homo sapiens, UniProt P61024+Q13309); assay: In vitro ubiquitylation assay, Skp2-mediated p27 ubiquitylation (Wild-Type Cks1); format: biochemical; conditions: 50 μM compound, immunoblot for p27-(Ub)n
T1 construct: made in house; host or cells: cell-free: rabbit reticulocyte lysate (TNT T7 Coupled Reticulocyte Lysate System, Promega) from pcDNA3.1 plasmids
Protocol: The 96 hits were tested in an in vitro ubiquitylation assay driven by in vitro transcribed/translated Skp2, Cks1, and p27 (Sitry et al., “Three Different Binding Sites of Cks1 are Required for p27-ubiquitin Ligation,” J. Biol. Chem. 277:42233-42240 (2002)). Assay sensitivity was established for various criteria (FIG. 1B): Enhanced ubiquitylation with Cks1 (lane 2), kinase activity requirement (lane 3), and responsiveness to known inhibitors of Cullin (lane 5) or Cdk2 (lane 6) activity (Meijer et al., “Biochemical and Cellular Effects of Roscovitine, a Potent and Selective Inhibitor of the Cyclin-dependent Kinases cdc2, cdk2 and cdk5,” Eur. J. Biochem. 243:527-536 (1997); Soucy et al., “An Inhibitor of NEDD8-activating Enzyme as a New Approach to Treat Cancer,” Nature 458:732-736 (2009), which are hereby incorporated by reference in their entirety). Compounds showing at least 50% inhibition of Skp2-mediated p27 ubiquitylation (FIG. 1C) were counter-screened for inactivity against two anti-target E3 ligases: MDM2 and SCF-βTrCP (FIGS. 6A-B). Compounds C1 and C2 were identified from the primary VLS and C16 and C20 were identified from a second VLS (FIG. 2).
(§1) In vitro reconstituted assays were performed as previously described (Dorrello et al., “S6K1- and betaTRCP-mediated Degradation of PDCD4 Promotes Protein Translation and Cell Growth,” Science 314:467-471 (2006), which is hereby incorporated by reference in their entirety) with the exceptions of the use of (1) unlabeled proteins (wild-type and mutant Skp2 and Cks1, p27, Flag-βTrCP, and HA-PDCD4) generated by in vitro transcription-translation (TNT T7 Coupled Reticulocyte Lysate System, Promega); (2) chain elongation with non-methylated ubiquitin; and (3) immunoblotting to detect poly-ubiquitylation. The following reagents were obtained from Boston Biochem: UBE1, His-UbcH3, His-UbcH5c, Ubiquitin, and Ubiquitin Aldehyde. Additional reagents include CDK2/CyclinE1 (Sigma-Aldrich), S6K (Invitrogen), Okadaic acid (Sigma), and DMSO (Sigma-Aldrich). For ubiquitin charging, UBE1 (100 nM) and His-UbcH3 (10 ng/μl) were incubated with ubiquitin (2.5 μg/μl), ATP (2 mM), and 10 μM […] of inhibitors or Vehicle control for 60 min at 30° C. Reactions were stopped in nondenaturing 2× Sample Buffer, with the addition of 10% Beta-mercaptoethanol as indicated, and analyzed by Western blotting.

[2] = test system: SCF-βTrCP; assay: β-TrCP PDCD4 in vitro ubiquitylation counter-screen; format: biochemical; conditions: 50 μM inhibitor
Protocol: as §1

[3] = test system: p27 in 501 Mel, SK-MEL-147, and SK-MEL-173; assay: Immunoblot of steady state protein levels in metastatic melanoma cell lines; format: cell-based, human; conditions: 10 μM inhibitor; melanoma cells
Protocol: 501 Mel cells were also treated with MG-132 (a proteasome inhibitor) to confirm that p27 and p21 induction were responsive to known UPS inhibitors (FIG. 4A, right). […] Thus, treatment of cells with inhibitors targeting the Skp2-Cks1 interface induces protein levels of specific Skp2-Cks1 substrates.
Whole cell extracts were prepared and immunoblotted as previously described Dorrello et al., “S6K1- and betaTRCP-mediated Degradation of PDCD4 Promotes Protein Translation and Cell Growth,” Science 314:467-471 (2006), which is hereby incorporated by reference in its entirety. For knockdown of Skp2 or p27, shRNAs were induced with 2 ng/ml doxycycline for 48 hours, with the last 16 hours co-treated with 0.1% Vehicle or 10 μM inhibitors as indicated. For cycloheximide chase, cells were pretreated 16 h with 0.1% Vehicle or 10 μM inhibitors, followed by 20 ng/ml cycloheximide (Sigma) and whole cell extracts collected for each time point. […] Scanning densitometry was performed on immunoblots using Image J software. For cell cycle analysis, cells were treated with 0.1% Vehicle or 10 μM inhibitors for 16 h. 1×10^6 cells were fixed in 70% ethanol for 2 h, treated with 200 μg/ml RNase A (Invitrogen) for 30 minutes, and stained with 20 μg/ml Propidium Iodine (Sigma). All samples were assayed in triplicates. Signal was detected using the Becton Dickson LSRII flow cytometer and cell cycle profiles were analyzed with FloJo.

[4] = test system: Caspase 3 in ECC-1 cells; assay: ECC-1 apoptosis (Caspase 3 cleavage immunoblot); format: cell-based, human; conditions: 10 μM, 18 h
Protocol: Whole cell lysates were prepared in ice cold RIPA buffer (50 mM Tris-HCL, 150 mM NaCl, 0.25% sodium deoxycholate, 1% NP-40 and 1 mM EDTA) containing 1 mM Na3VO4, pH 7.4) and 1× Protease Inhibitor Cocktail (Sigma Chem, St Louis, Mo.). Following freezing and thawing once, and soluble proteins obtained by centrifugation at 14,000×g for 10 min at 4° C. Protein concentrations were quantified (BCA kit, Thermo Scientific, Rockland, Ill.) and 20 μg protein in Laemmli buffer were subjected to SDS-PAGE (12.5% polyacrylamide) and immunoblotted using anti-p27 and anti-Skp2 antibodies to probe protein levels, as described (Lecanda et al., “TGFbeta Prevents Proteasomal Degradation of the Cyclin-dependent Kinase Inhibitor p27kip1 for Cell Cycle Arrest,” Cell Cycle 8:742-756 (2009), which is hereby incorporated by reference in its entirety). For subcellular fractionation, following treatments, cells were separated into nuclear and cytoplasmic fractions using the NE-PER kit (Thermo Scientific), and 10 μg cytoplasmic and nuclear protein fractions were loaded onto SDS-PAGE for immunoblotting. Following protein transfer onto nitrocellulose membranes, the membrane was blocked with 5% non-fat dry milk in TBS containing 0.1% Tween 20 (TBST) for 1 h, incubated overnight with mouse anti-human p27 (1:1000, Clone 57, BD Transduction Labs) or mouse anti-human p45/Skp2 (1:1000, Clone 8D9, Invitrogen, Grand Island, N.Y.) or rabbit anti-human Caspase-3 antibody (1:500, Clone 8G10, Cell Signaling Technology (Danvers, Mass.)). Purity of the subcellular fractions was confirmed using mouse anti-human α-tubulin (1:10,000, Clone B-5-1-2, Sigma) for cytoplasmic or rabbit anti-human Sp1 (1:1000, Clone H-225, Santa Cruz Biotechnology, Santa Cruz, Calif.) for nuclear fractions. The membranes were incubated with peroxidase-conjugated goat anti-rabbit or goat anti-mouse secondary antibodies in TBST (1:2000; Thermo Scientific).

[5] = test system: p27 in ECC-1 cells; assay: p27 immunoblot in ECC-1 cells (whole cell lysates, nuclear and cytoplasmic fractions); conditions: ECC-1; for p27 protein levels over Vehicle control: 10 μM for 18 h, whole cell lysates (FIG. 11A); for Increase of nuclear p27 compared to Vehicle control: nuclear fraction (FIG. 11C); for p27 increase over control at optimal concentration: 10 μM (FIG. 11B); for Nuclear p27 increase over the control in presence of E2: 10 μM compound plus 1 nM E2; for Nuclear p27 increase over the control in presence of E2 / Decrease of cytoplasmic p27 levels: 18 h (FIG. 14C); for Decrease of cytoplasmic p27 levels: 10 μM
Protocol: The endometrial carcinoma cell line (derived from a well-differentiated endometrioid Type I ECA) ECC-1 cells (ATCC, Manassas, Va.) were plated at a density of 3×10^5/well/6-well plate and grown in DMEM:F12 supplemented with 10% FBS (BioWest, Ocala, Fla.). The cell line was passaged in the laboratory for fewer than 6 months after receipt. […] ECAs were plated at a density of 2.2×10^6 cells/6-well Primaria® plates (BD Biosciences, San Jose, Calif.) in McCoys 5A media without phenol red containing 10% charcoal-stripped FBS, 2 mM L-Glutamine (Invitrogen) and antimycotic antibiotic solution (Mediatech, Hendon, Va.).
For subcellular fractionation, following treatments, cells were separated into nuclear and cytoplasmic fractions using the NE-PER kit (Thermo Scientific), and 10 μg cytoplasmic and nuclear protein fractions were loaded onto SDS-PAGE for immunoblotting. […] The membranes were incubated with peroxidase-conjugated goat anti-rabbit or goat anti-mouse secondary antibodies in TBST (1:2000; Thermo Scientific). […] Protein bands were resolved using the SuperSignal West Dura kit (Thermo Scientific), visualized by exposure to X-ray film (HyBlot; Denville Scientific, Denville, N.J.), and following densitometric scanning (Kodak Logic-100), the protein bands were quantified by normalizing to β-actin and compared to the untreated control, and the values represented by the graphs of relative protein levels compared to actin in each well and shown as % of Vehicle control.

T1 sequence (Q13309 whole entry): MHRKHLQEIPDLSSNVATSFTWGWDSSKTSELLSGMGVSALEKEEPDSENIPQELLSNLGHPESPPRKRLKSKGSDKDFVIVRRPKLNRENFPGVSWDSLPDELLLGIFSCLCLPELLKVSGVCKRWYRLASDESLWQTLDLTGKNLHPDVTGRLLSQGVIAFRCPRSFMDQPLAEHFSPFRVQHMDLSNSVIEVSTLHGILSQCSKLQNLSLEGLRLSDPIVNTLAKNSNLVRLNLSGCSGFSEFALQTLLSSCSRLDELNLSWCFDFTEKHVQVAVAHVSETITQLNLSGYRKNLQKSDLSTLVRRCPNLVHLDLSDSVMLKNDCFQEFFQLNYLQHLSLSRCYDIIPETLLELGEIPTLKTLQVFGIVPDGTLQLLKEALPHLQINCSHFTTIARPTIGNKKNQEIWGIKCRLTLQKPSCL
T1 sequence (P61024 whole entry): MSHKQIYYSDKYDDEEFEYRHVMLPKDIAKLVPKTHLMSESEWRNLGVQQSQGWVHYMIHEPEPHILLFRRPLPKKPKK
T1 sequence (P63208 whole entry partner): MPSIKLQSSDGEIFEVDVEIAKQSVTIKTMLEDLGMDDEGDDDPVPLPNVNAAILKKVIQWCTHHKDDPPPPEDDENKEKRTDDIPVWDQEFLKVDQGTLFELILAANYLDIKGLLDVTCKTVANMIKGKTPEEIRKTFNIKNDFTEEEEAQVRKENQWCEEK
T1 sequence (Q13616 whole entry partner): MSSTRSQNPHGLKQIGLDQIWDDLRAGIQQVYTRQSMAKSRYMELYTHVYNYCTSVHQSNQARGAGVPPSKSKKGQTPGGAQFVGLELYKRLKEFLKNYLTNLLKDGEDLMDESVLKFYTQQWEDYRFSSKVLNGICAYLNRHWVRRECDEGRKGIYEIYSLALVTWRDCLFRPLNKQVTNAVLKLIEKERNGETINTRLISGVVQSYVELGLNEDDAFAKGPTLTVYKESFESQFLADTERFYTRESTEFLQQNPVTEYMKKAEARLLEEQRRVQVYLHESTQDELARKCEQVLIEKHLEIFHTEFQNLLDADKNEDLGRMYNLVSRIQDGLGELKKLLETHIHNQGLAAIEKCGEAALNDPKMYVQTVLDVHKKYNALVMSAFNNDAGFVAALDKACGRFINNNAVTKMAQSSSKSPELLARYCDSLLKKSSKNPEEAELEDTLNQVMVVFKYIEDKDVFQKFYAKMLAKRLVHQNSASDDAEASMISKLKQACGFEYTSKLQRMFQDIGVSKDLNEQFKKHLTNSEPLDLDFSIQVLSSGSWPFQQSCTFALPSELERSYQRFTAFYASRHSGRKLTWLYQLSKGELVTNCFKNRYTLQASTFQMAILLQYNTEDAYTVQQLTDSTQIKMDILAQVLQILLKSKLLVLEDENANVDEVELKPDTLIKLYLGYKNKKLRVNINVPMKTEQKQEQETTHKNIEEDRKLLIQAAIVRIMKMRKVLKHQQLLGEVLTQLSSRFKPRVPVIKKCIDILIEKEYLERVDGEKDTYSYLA
T1 sequence (P62877 whole entry partner): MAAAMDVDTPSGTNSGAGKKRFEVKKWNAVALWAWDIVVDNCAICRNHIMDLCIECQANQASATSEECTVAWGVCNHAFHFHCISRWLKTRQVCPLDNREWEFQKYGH

SMILES	Inhibition of Skp2-mediated p27 ubiquitylation [1]	β-TrCP activity (PDCD4 poly-ubiquitylation) [2]	p27 protein induction [3]	Caspase 3 cleavage (apoptosis) [4]	p27 protein levels over Vehicle control [5]	Increase of cytoplasm p27 ([5]; 18 h, cytoplasmic fraction (FIG. 11C))	Increase of nuclear p27 compared to Vehicle control ([5]; 18 h)	Levels of Skp2 [5]	p27 increase over control at optimal concentration [5]	Nuclear p27 increase over the control in presence of E2 [5]	Decrease of cytoplasmic p27 levels [5]	Concentration inducing p27 to the same level as the proteasome inhibitor ([5]; 24 hours, compared to 1 μM Lactacystin)	Cytoplasm p27, time course ([5]; by 18 h (FIG. 15A))	Nuclear p27, time course ([5]; by 18 h (FIG. 15A))
O=C(O)COc1ccc(C=C2SC(=O)N(CC(=O)c3ccc(Cl)cc3)C2=O)cc1 [Compound C16]	active	not blocked	induce p27 protein	shows cleavage of caspase 3	increase p27 protein levels	2.7 fold	2.2 fold							
O=C(O)COc1ccc(Br)cc1C=C1SC(=S)N(Cc2cccnc2)C1=O [Compound C1]	active	not blocked	induce p27 protein											
O=C(NN=Cc1cc(Br)cc(Br)c1O)C(=Cc1ccccc1O)NC(=O)c1ccccc1 [Compound C20]	strongly inhibited	not blocked	induce p27 protein	activate caspase 3 to a similar extent as the control	increase p27 protein levels		2.2 fold	do not effect the levels of Skp2	2.2	~2 fold	approximately 33%			
COC(=O)C1=C(C)N(c2ccc(Br)cc2)C(=O)C1=Cc1ccccc1O [Compound C2]	strongly inhibited	not blocked	induce p27 protein	activate caspase 3 to a similar extent as the control	increase p27 protein levels		1.8 fold	do not effect the levels of Skp2	2.3	~2 fold	approximately 33%	≤ 0.1 µM	half	doubled
